The text below walks through data of article PMC5904165, “Insight into the cold adaptation and hemicellulose utilization of Cladosporium neopsychrotolerans from genome analysis and biochemical characterization” (Scientific Reports, 2018).

Structures are written as SMILES.

The target in assay [1] is T1, Xyl43A.
T1 construct: intracellular enzyme
The assay can be described thus: inhibition of pNPX hydrolysis, Dixon plot. In kind it is biochemical, Cladosporium neopsychrotolerans. To be noted: pNPX substrate, McIlvaine buffer pH 6.8, room temperature, 10 min; mode not stated.

The subject of assay [2] is T1, Xyl43A. The assay can be described thus: p-nitrophenol release, Michaelis-Menten fit. To be noted: 35 °C (optimum), optimal pH; 1-10 mM pNPX used, so the table's unit mg/mL may be doubtful. In kind it is biochemical, Cladosporium neopsychrotolerans. From the text:
p-nitrophenol release, Michaelis-Menten fit on Xyl43A

As for `OC1OC[C@@H](O)[C@H](O)[C@H]1O` (stereo partly drawn) [D-xylose], at Xyl43A [1], the affinity corresponds to a Ki of 43.3 mM.

With `O=[N+]([O-])c1ccc(O[C@@H]2OC[C@@H](O)[C@H](O)[C@H]2O)cc1` [pNPX], in the assay on Xyl43A [2], the “Xyl43A / 35 °C (Topt)” value is recorded as 2.73 ± 0.37 mg/mL.
